In patent US6410480B1, “Herbicidally active 3-hydroxy-4-aryl-5-oxopyrazoline derivatives” (Syngenta Crop Protection, Inc., priority 1998, dated 2002):

What was measured:
Assay type in all cases: in vivo
Parameters in all cases: key: 1=complete damage; 9=no effect; Ratings of 1 to 4 (in particular 1 to 3) mean a good to very good herbicidal action
Avena [1] = assay: Example B4: post-emergence herbicidal action of compounds of the invention; settings: 3- to 6-leaf stage, 250 g of active substance/ha, 3 weeks after application, scale 1-9
Procedure: (§1) Monocotyledonous and dicotyledonous weeds are grown in standard soil in plastic pots under greenhouse conditions. The test substances are applied at the 3- to 6-leaf stage of the test plants. The test substances are applied (500 l of water/ha) as an aqueous suspension (prepared using a 25% wettable powder (Example F3, b)) or as an emulsion (prepared using a 25% emulsion concentrate (Example F1, c)) at an application rate of 250 g of active substance/ha. 3 weeks after the application, evaluation is carried out using a nine-level scale of ratings (1=complete damage, 9=no effect). Ratings of 1 to 4 (in particular 1 to 3) mean a good to very good herbicidal action. Test plants: Avena (Ave), Lolium (Lol), Setaria (Set).

Lolium [2] = assay: as above; settings: 3- to 6-leaf stage, 250 g of active substance/ha, 3 weeks after application, scale 1-9
Procedure: as §1

Setaria [3] = assay: as above; settings: 3- to 6-leaf stage, 250 g of active substance/ha, 3 weeks after application, scale 1-9
Procedure: as §1

Avena [4] = assay: Example B3: pre-emergence herbicidal action of compounds of the invention; settings: 500 g of active substance/ha, 3 weeks after application, scale 1-9
Procedure: as §1, with “pots. Directly after sowing,” for “pots under greenhouse conditions. The test substances are applied at”, “the” for “the 3- to 6-leaf stage of the test plants. The”, “c)). The” for “c)) at an”, “is 500” for “of 250”, “substance/ha. The test plants are subsequently grown under optimum conditions in a greenhouse” for “substance/ha.”

Lolium [5] = assay: as above; settings: 500 g of active substance/ha, 3 weeks after application, scale 1-9
Procedure: as §1, with “pots. Directly after sowing,” for “pots under greenhouse conditions. The test substances are applied at”, “the” for “the 3- to 6-leaf stage of the test plants. The”, “c)). The” for “c)) at an”, “is 500” for “of 250”, “substance/ha. The test plants are subsequently grown under optimum conditions in a greenhouse” for “substance/ha.”

Setaria [6] = assay: as above; settings: 500 g of active substance/ha, 3 weeks after application, scale 1-9
Procedure: as §1, with “pots. Directly after sowing,” for “pots under greenhouse conditions. The test substances are applied at”, “the” for “the 3- to 6-leaf stage of the test plants. The”, “c)). The” for “c)) at an”, “is 500” for “of 250”, “substance/ha. The test plants are subsequently grown under optimum conditions in a greenhouse” for “substance/ha.”

| Compound | Post-emergence action, Ave (rating) (Avena [1]) | Post-emergence action, Lol (rating) (Lolium [2]) | Post-emergence action, Set (rating) (Setaria [3]) | Pre-emergence action, Ave (rating) (Avena [4]) | Pre-emergence action, Lol (rating) (Lolium [5]) | Pre-emergence action, Set (rating) (Setaria [6]) |
| --- | --- | --- | --- | --- | --- | --- |
| C#Cc1cc(C)cc(C)c1-c1c(OC(=O)C(C)(C)C)n2n(c1=O)CCOCC2 [1.016] | 3 | 2 | 2 | – | – | – |
| CCc1cc(C)cc(CC)c1-c1c(OC(=O)C(C)(C)C)n2n(c1=O)CCOCC2 [1.008] | – | – | – | 1 | 1 | 1 |
| Cc1cc(Br)c(-c2c(O)n3n(c2=O)CCOCC3)c(Br)c1 [1.088] | 4 | 4 | 3 | – | – | – |
| Cc1cc(C)c(-c2c(O)n3n(c2=O)CCOCC3)c(Br)c1 [1.078] | 1 | 1 | 4 | – | – | – |
| CCc1cc(C)cc(C)c1-c1c(OC(=O)C(C)(C)C)n2n(c1=O)CCOCC2 [1.005] | 1 | 2 | 2 | – | – | – |
